Records with an inconclusive call do not appear. Active and inactive are the calls of the source.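 The calls were made as follows: active = Wild-type ribosome reporter drop at least double the humanized mutant ribosome reporter drop, growth loss under a set limit; inconclusive = no clear call, values can overlap the other calls; inactive = the rest.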
Tested on: E. coli wild-type GFP strain growth, fluorescence, 24 h
Assay: wild-type E. coli growth inhibition versus H69 humanized strain – H69 mutant RFP, wild-type GFP, cherry-pick, dose response (AID 977621);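 also: wild-type GFP and H69 mutant RFP strains grown together 50/50 in each well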
[1] = E. coli mixed culture, 24 h, measured here: total growth OD600, test 2

| SMILES | AC50 | AC50 [1] |
| --- | --- | --- |
| COc1ccc(NC(=O)Nc2cccc3c2O[C@H](CN(C)S(=O)(=O)c2ccc(Cl)cc2)[C@H](C)CN([C@@H](C)CO)C3=O)cc1 | > 100 µM (inactive) | 6.44 µM |
| O=C(Nc1cccnc1)c1ccc([N+](=O)[O-])o1 | > 100 µM (inactive) |  |
| O=C(c1cc(C(=O)N2CCOCC2)c2nc3ccccc3n2c1)c1cc(Cl)cc(Cl)c1O | > 100 µM (inactive) | > 100 µM |
| CN(C)C(CNS(=O)(=O)c1cc([N+](=O)[O-])ccc1Cl)c1ccco1 (configuration not stated) | > 100 µM (inactive) |  |
| CC(=O)N1c2c(cc(Br)cc2S(=O)(=O)N2CCCCC2)CC1C (configuration not stated) | > 100 µM (inactive) |  |
| CSc1nc2ccc(NC(=O)c3c(-c4ccccc4)noc3C)cc2s1 |  | 46.5 µM |
| c1ccc(Cc2nc3ccccc3s2)cc1 | > 100 µM (inactive) | > 100 µM |
| Cc1nc(-c2ccc([N+](=O)[O-])cc2)c(-c2ccccc2)o1 | > 100 µM (inactive) |  |
| COc1ccc(Cc2nnc(Nc3ccc(C)cc3)o2)cc1OC | > 100 µM (inactive) |  |
| CCOC(=O)c1ccc(CC(=O)c2oc3cc(O)ccc3c2C)o1 | > 100 µM (inactive) |  |
| COc1cc(C(N)=O)cc(Br)c1OCc1ccccc1 | > 100 µM (inactive) | 35.4 µM |
| CSc1ccccc1OCc1cc(C(=O)N(C)Cc2nonc2C)no1 |  | > 100 µM |
| CC1(C(=O)NS(=O)(=O)c2ccc3c(c2)CCO3)CCN1C(=O)c1ccccc1CCc1ccccc1 (configuration not stated) | > 100 µM (inactive) |  |
| O=C(Nc1ccn(Cc2ccc(Cl)cc2)n1)c1ccccc1 |  | > 100 µM |
| CN(c1ccc(C(=O)NCc2cccs2)cc1)S(=O)(=O)c1ccccc1 |  | < 0.6 µM |
| CCCCNC(=O)c1cc2c(C)cc(C)cc2[nH]1 | > 100 µM (inactive) |  |
| O=C(CCNC(=O)c1ccco1)Nc1cccc(Br)c1 |  | > 100 µM |
| CNC(=O)c1sc(-c2ccccn2)nc1C |  | > 100 µM |

| SMILES | AC50 | AC50 [1] |
| --- | --- | --- |
| COC(=O)[C@H](Cc1c[nH]c2ccccc12)NCc1cccc(B(O)O)c1 | > 100 µM (inactive) | > 100 µM |
| CC(=O)Nc1ccc(-c2ccnc3c2CC(C)(C(=O)Nc2ccc4c(c2)OCO4)O3)cc1 (configuration not stated) |  | > 100 µM |
| Cc1noc(C)c1NC(=O)Nc1ccc2c(c1)C(=O)N([C@@H](C)CO)C[C@H](C)[C@H](CN(C)C(=O)Nc1ccc3c(c1)OCO3)OCCCC[C@H](C)O2 | > 100 µM (inactive) |  |
| O=C(c1ccccc1)c1ccc2nc(-c3ccc(NC(=O)c4ccccc4Br)cc3)[nH]c2c1 | > 100 µM (inactive) | > 100 µM |
| Cc1nc2ccc(Br)cc2c(=O)n1Cc1cccs1 | > 100 µM (inactive) | 50.2 µM |
| CO[C@@H]1CN(C)C(=O)c2cc(NC(=O)C3CCCC3)ccc2OC[C@@H](C)N(C(=O)Nc2ccc(C(F)(F)F)cc2)C[C@H]1C | > 100 µM (inactive) |  |
| CCn1nnc(NC(=O)c2ccc([N+](=O)[O-])o2)n1 | > 100 µM (inactive) |  |
| Cc1ccc(Nc2cc(C(=O)NCCCN3CCOCC3)c3ccccc3n2)cc1C | > 100 µM (inactive) |  |
| CCc1nnc(NS(=O)(=O)c2ccc(NC(=O)c3cc(Cl)ccc3[N+](=O)[O-])cc2)s1 |  | 51.9 µM |
| COc1ccc(OC)c(S(=O)(=O)Nc2cccc3ccc(O)cc23)c1 |  | > 100 µM |
| O=C1NC(CCc2ccccc2)C(=O)N1Cc1cccc2ccccc12 (configuration not stated) |  | 50 µM |
| Cc1c(C(=O)NCCSCc2cccc(C(F)(F)F)c2)cnn1-c1ccc(F)cc1 | > 100 µM (inactive) | 17.4 µM |
| Cc1cc(NCc2ccccn2)n2nc(C)c(-c3ccccc3)c2n1 |  | 49.3 µM |
| Cc1ccc(CSCC(=O)N(C)CC(=O)Nc2ccccc2Cl)cc1 | > 100 µM (inactive) |  |
| CCOc1ccc(CCNC(=O)CCc2nc3ccccc3[nH]2)cc1OCC | > 100 µM (inactive) | > 100 µM |
| COc1ccccc1-c1ccc(SCc2cccc(F)c2)nn1 | > 100 µM (inactive) | 20.3 µM |
| NS(=O)(=O)c1cc(C(=O)OCC(=O)Nc2ccccc2[N+](=O)[O-])ccc1Cl | > 100 µM (inactive) | > 100 µM |
| CCOc1ccccc1/C=C/c1cc(C(=O)O)c2ccccc2n1 |  | 35.3 µM |

Source: PubChem BioAssay AID977621 (Broad Institute, 2014)
